According to patent publication US20060199832A1, “Use of non-immunosupressive pipecolic acid derivatives for inducing chondrogenic differentiation” (Astellas Pharma Inc., priority 2003, published 2006):

Tested on: ATDC5 cells
Assay: Induction of chondrogenic differentiation of ATDC5 cells (Alcian blue staining of proteoglycan)
Assay type: cell-based
Settings: ATDC5 cells incubated for 24 days; compound (1) at 1-10000 ng/ml; results in FIG. 1
Protocol: The inducing activity by the compound (1) on chondrogenic differentiation was evaluated in accordance with the below-mentioned method.
(1) The ATDC5 cell line provided by RIKEN Cell Bank (Tsukuba, Japan) was grown in a 1:1 mixture of Dulbecco's modified Eagle's medium and Ham's F12 medium (Nikken Biomedical Laboratory, Kyoto, Japan) supplemented with 10% heat-inactivated fetal bovine serum (Intergen, Purchase, N.Y.).
(2) The above ATDC5 cells were plated in 12-multiwell plastic plate at a density of 1×10^5 cells/well in the medium. After 4 hr, the medium was replaced with fresh medium containing the compound (1) or Cyclosporin A (CsA), and the culture was continued for a 24 days with medium change every 2 or 3 days. Cells were fixed with methanol and stained 0.1% Alcian blue (Sigma Chemical Co., St. Louis, Mo.) dissolved in 0.1 M hydrochloric acid for 16 hr at room temperature. Cells were then rinsed three times with distilled water, and the amount of cell-associated dye was measured at 620 nm after extraction with 6 M guanidine-HCl (300 μl/well)
ATDC5 cells were incubated with the compound (1) or CsA for 24 days and the amount of proteoglycan was assayed.

COC1CC(/C=C(\C)C2OC(=O)C3CCCCN3C(=O)C(=O)C3(O)OC(C(OC)CC(C)C/C(C)=C/C(CC(C)=O)C(=O)CC(O)C2C)C(OC)CC3C)CCC1O (centres unmarked) [compound (1)]
chondrogenic differentiation (amount of proteoglycan, cell-associated Alcian blue dye measured at 620 nm): induced differentiation into chondrocyte in a concentration-dependent manner

Cyclosporin A [CsA]
chondrogenic differentiation (amount of proteoglycan, cell-associated Alcian blue dye measured at 620 nm): did not induce the differentiation
